Data: patent US12599584B2, “Indoline derivatives, compositions comprising them and uses thereof” (Yissum Research Development Company of The Hebrew …, priority 2016, dated 2026)
Where a name gives a salt, the structure may show the parent alone.

Tests used:
[1] = tested on: NO release from LPS-activated RAW cells; experiment: Release of NO from LPS-activated RAW 264.7 macrophages (Griess); type: cell-based, mouse; conditions: for Lowest concentration that inhibited NO release by 25%: LPS-activated RAW cells; for Greater concentration needed to cause the same effect (NO release): substituent in position 5, compared with AN1284
Experimental: (§1) Anti-inflammatory activity was measured in RAW 264.7 macrophage cells. The cells were seeded at density of 5×10^4 per well in 48-well culture plates and grown overnight in DMEM as described above. The compounds were added to give final concentrations ranging from 1×10^−12-1×10^−6 M of the respective salts per well. The cells were incubated for 2 h at 37° C. prior to stimulation with lipopolysaccharide (LPS, 2.5 μg/mL) from Escherichia coli (Sigma-Aldrich). Supernatants were harvested after 8 h for detection of TNF-α and after 24 h for nitric oxide (NO). NO production was detected by a colourimetric method using Griess reagent (0.2% naphthylenediamine dihydrochloride, and 2% sulfanilamide in 5% phosphoric acid), which measures the concentration of nitrite, a stable metabolite produced from NO. TNF-α protein was detected by means of the sandwich ELISA method using an ELISA kit (Biolegend, San Diego, CA, USA) according to the manufacturer's instructions.

[2] = tested on: TNF-α release from LPS-activated RAW cells; experiment: Release of TNF-α from LPS-activated RAW 264.7 macrophages (ELISA); type: cell-based, mouse; conditions: for Lowest concentration that inhibited TNF-α release by 25%: LPS-activated RAW cells; for Greater concentration needed to cause the same effect (TNF-α release): substituent in position 5, compared with AN1284
Experimental: as §1

LPS-injected mice = experiment: Pro-inflammatory cytokine proteins in tissues of mice injected with LPS; type: in vivo, mouse; conditions: sc, 2-3 doses, 15 min before LPS 10 mg/kg ip; 4 h after LPS
Experimental: Male Balb/c OlaHsd mice (aged 7-8 weeks) were injected subcutaneously (sc) with saline, or with AN1279, AN1283, AN1284, AN1287 and AN1298 at doses that contain approximately the equivalent amount of the base. LPS (10 mg/kg) was given by intraperitoneal injection 15 min later. The mice were sacrificed 4 h later, which was previously shown to be the optimal time for elevation of cytokines in the spleen and brain. The spleen, brain and liver were rapidly removed and frozen in liquid nitrogen and stored at −80° C. until use. A piece of the cortex was taken for gene analysis of cytokines. Blood was collected into heparinized tubes and plasma separated by centrifugation. For measurement of cytokine protein, tissues were weighed and diluted in PBS containing 0.8% NaCl, 0.144% NaHPO4, 0.024% KH2PO4 and protease inhibitor cocktail (Sigma) and homogenised in an Ultra-TURRAX® homogeniser at a speed of 24,000 rpm and centrifuged at 14000 g for 15 min at 4° C. Cytokines were detected by means of Elisa kits (Biolegend) and protein concentration was determined by a bicinchoninic acid protein assay kit (Thermo Scientific, IL, USA).

[3] = tested on: TNF-α in human macrophages; experiment: TNF-α in human macrophages after elevation by LPS (ELISA); type: cell-based
Experimental: Blood (20 ml was collected from healthy human subjects on the day of the experiment in anti-coagulant tubes and diluted in PBS 1:1. Ficol (12 mL) was added into the bottom of the tube, centrifuged slowly for 30 min at 1400 g and peripheral blood mononuclear cells (PBMCs) were separated. Monocytes were isolated by addition of 15 ml of MACS buffer. After centrifugation at 1400 g for 10 min at 4° C., the supernatant fluid was removed, monocytes were isolated by means of a MACS-Monocyte isolation kit (cat: 130-091-153) and incubated at 4-8° C. for 10 min Monocytes (500,000/well) were seeded in 12 multi well plate and cultured for 7 days in RPMI+L-Glutamin+FBS (10%) and PenStrep and h-MCSF (20 ng/mL) to convert them into macrophages. […] TNF-α, IL-1β and IL-6 protein were detected by means of the sandwich ELISA method using an ELISA kit for human cytokines (Biolegend, San Diego, CA, USA) according to the manufacturer's instructions.

[4] = tested on: IL-6 in human macrophages; experiment: IL-6 in human macrophages after elevation by LPS (ELISA); type: cell-based; conditions: 24 h after LPS; 1 × 10^−9 M
Experimental: Blood (20 ml was collected from healthy human subjects on the day of the experiment in anti-coagulant tubes and diluted in PBS 1:1. Ficol (12 mL) was added into the bottom of the tube, centrifuged slowly for 30 min at 1400 g and peripheral blood mononuclear cells (PBMCs) were separated. Monocytes were isolated by addition of 15 ml of MACS buffer. After centrifugation at 1400 g for 10 min at 4° C., the supernatant fluid was removed, monocytes were isolated by means of a MACS-Monocyte isolation kit (cat: 130-091-153) and incubated at 4-8° C. for 10 min Monocytes (500,000/well) were seeded in 12 multi well plate and cultured for 7 days in RPMI+L-Glutamin+FBS (10%) and PenStrep and h-MCSF (20 ng/mL) to convert them into macrophages. Compounds (AN1284, AN1297, AN1298, 1×10^−10 or 1×10^−9 M) were added 2 h before LPS (100 μg/mL Sigma Ltd. phenol extracted from Escherichia coli 055: B5) and incubated at 37° C., 5% CO2. TNF-α, IL-1β and IL-6 protein were detected by means of the sandwich ELISA method using an ELISA kit for human cytokines (Biolegend, San Diego, CA, USA) according to the manufacturer's instructions.

RERT/TSC1^f/f mice = experiment: Tuberous sclerosis model: tamoxifen-induced TSC1 deletion; type: in vivo, mouse
Experimental: RERT/TSC1^f/f mice develop kidney pathology that resembles human tuberous sclerosis (TSC). Mice bearing a floxed allele of TSC1 were purchased from Jackson laboratories and crossed to homozygosity to the RERT strain, provided by Dr. Mariano Barbacid, Spanish National Cancer Research Centre. The RERT strain contains an IRES-Cre-ERT2 knock in into the large subunit of RNA polymerase II, allowing an inducible deletion in all cell types by administration of tamoxifen. […] The mice were injected sc with tamoxifen to induce TSC1 deletion and its effect assessed on body weight and immunological parameters associated with inflammation. AN1284 (1 μmole/kg of the 2HCl salt) was injected sc, twice daily in a group of 5 female mice 5 weeks after tamoxifen challenge. An untreated group of 5 tamoxifen challenged mice served as controls. The mice were weighed once weekly and observed for development of lethargy and eye closure.

[5] = tested on: C57B1/6 mice with STZ-induced diabetes; experiment: Diabetic nephropathy induced by streptozotocin (STZ); type: in vivo, mouse
Text: The renal proximal tubule is uniquely susceptible to a variety of metabolic and hemodynamic factors associated with diabetes, predominantly to hyperglycaemia. Glucose entry into renal proximal tubular cells is insulin-independent, making these cells particularly sensitive to the deleterious effects of chronic hyperglycaemia in subjects with diabetes. To induce diabetic nephropathy, male 20, 8-week-old C57B1/6 mice were given five consecutive intraperitoneal injections of streptozotocin (STZ) (50 mg/kg per day). A control group of 10 mice was given 0.1 mol/L citrate buffer (pH 4.5). Ten days following the last injection of STZ, half the mice were treated twice daily with sc injections of AN1284 2HCl (2 μmoles/kg), or vehicle (saline) for fifteen weeks.

[6] = tested on: cerulein-induced mouse model; experiment: Acute pancreatitis, cerulein-induced mouse model; type: in vivo; conditions: for Serum amylase: 1 and 2 mg/kg sc 30 min after first cerulein injection, 4 hours; for TNF-α protein in the pancreas: 1 and 2 mg/kg sc, 4 hours after first cerulein injection
Experimental: The most commonly used animal model for acute pancreatitis is the cerulein-induced mouse model (Su et al., 2006). Cerulein is a cholecystokinin analogue that produces hyperstimulation of the pancreatic acinar cells at supramaximal dosage. The acute necrotizing pancreatitis produced is histopathologically similar to acute human pancreatitis (Van Acker et at, 2007). Groups of 10 Balb/C male mice weighing 24 gm were injected intraperitoneally once every hour for 4 hours with cerulean (50 μg/kg) suspended in saline. AN1297 (1 or 2 mg/kg) or resolvin D (1 mg/kg) or saline that were injected sc. 30 min after the first cerulean injection. Mice were killed by exsanguination at 4 hours after the first cerulein injection. Blood samples or measurement of amylase were obtained by direct intracardiac puncture. Pancreases were removed immediately, flash frozen in liquid nitrogen and stored −80° C. until assayed, for TNF-α protein by means of the sandwich ELISA method using an ELISA kit (Biolegend, San Diego, CA, USA) according to the manufacturer's instructions. Serum amylase activity was determined using a colorimetric assay kit (ab102523, Abcam). The values of serum amylase activity are expressed as units per litre (U/l).

[7] = N-isopropylpropylamine versus propylamine side chain
[8] = 1 μmole/kg 2HCl salt sc twice daily
[9] = whole kidney homogenates of diabetic mice
[10] = listed as AN1927, Hydrochloride

COC(=O)CCC1CNc2ccccc21.Cl (centres unmarked) [AN647]
Lowest concentration that inhibited NO release by 25% [1]: 100 pM
Lowest concentration that inhibited TNF-α release by 25% [2]: 100 pM

Cc1ccc(S(=O)(=O)O)cc1.NCCCC1CNc2ccccc21 (centres unmarked) [AN1282, 3-(Indolin-3-yl)propan-1-amine di-p-Toluenesulfonate]
Lowest concentration that inhibited NO release by 25% [1]: 100 pM
Lowest concentration that inhibited TNF-α release by 25% [2]: 100 pM

COC(=O)CCN1CCc2ccccc21.Cl [AN1283, Methyl 3-(Indolin-1-yl)propanoate Hydrochloride]
IL-6 protein in the brain (LPS-injected mice): reduction
IL-6 protein in the liver (LPS-injected mice): reduction

CC(C)NCCCN1CCc2ccccc21.Cc1ccc(S(=O)(=O)O)cc1 [AN1284, 3-(Indolin-1-yl)-N-isopropylpropan-1-amine di-p-Toluenesulfonate]
Decrease of the concentration that inhibited significantly the release of NO [1, 7]: 10 fold
Decrease of the concentration that inhibited significantly the release of TNF-α [2, 7]: 10 fold
Reduction (%) ± STD compared to LPS alone, TNF-α ([3]; 6 h after LPS, 1 × 10^−9 M): 55.3 ± 9.8%
Reduction (%) ± STD compared to LPS alone, TNF-α ([3]; 12 h after LPS, 1 × 10^−10 M): 41.1 ± 5.4%
Reduction (%) ± STD compared to LPS alone, TNF-α ([3]; 12 h after LPS, 1 × 10^−11 M): 7.1 ± 5.8 %
Reduction (%) ± STD compared to LPS alone, TNF-α ([3]; 24 h after LPS, 1 × 10^−9 M): 71.4 ± 9.7%
Reduction (%) ± STD compared to LPS alone, IL-6 [4]: 64.7 ± 14.8%
IL-6 protein in the brain (LPS-injected mice): reduction
IL-6 protein in the liver (LPS-injected mice): reduction
MDSCs in the bone marrow and spleen (flow cytometry) (RERT/TSC1^f/f mice; [8]): significant reduction
T cells in the bone marrow and spleen (flow cytometry) (RERT/TSC1^f/f mice; [8]): significant reduction
Body weight decrease (RERT/TSC1^f/f mice; 1 μmole/kg 2HCl salt sc twice daily, versus untreated tamoxifen-challenged mice): much smaller decrease
Development of severe lethargy (RERT/TSC1^f/f mice; 1 μmole/kg of the 2HCl salt sc twice daily, from 5 weeks after tamoxifen, five weeks of treatment): none of the AN1284-treated mice developed severe lethargy
Renal cysts (RERT/TSC1^f/f mice; kidney histology): clear reduction
Cytokine levels of TNF-α and IL-6 in spleen and liver (RERT/TSC1^f/f mice; versus untreated group): significant reduction
Degree of hyperglycaemia ([5]; 2 μmoles/kg sc twice daily, fifteen weeks): did not affect
Renal mRNA expression level of fibronectin 1 ([5]; 0.5 mg/kg, sc): significantly normalised
Total fat mass ([5]; AN1284 2HCl 2 μmoles/kg sc twice daily for fifteen weeks, diabetic mice): further reduction
Blood urea nitrogen levels ([5]; chronic treatment): normalizing
Glomerular cross-sectional area ([5]; chronic treatment): normalizing
Urine albumin-to-creatinine ratio ([5]; chronic treatment): normalizing
Increased glomerular space area and mesangial expansion ([5]; versus diabetic-vehicle-treated animals): completely normalised
Kidney-to-body weight ratio ([5]; versus diabetic-vehicle-treated group): significantly reduced
mRNA expression level of IP-10 [5, 9]: significantly reduced
mRNA expression level of TIMP1 [5, 9]: significantly reduced
mRNA expression level of collagen-1 [5, 9]: significantly reduced
mRNA expression level of collagen-3 [5, 9]: significantly reduced
mRNA expression level of kidney injury marker lipocalin 2 [5, 9]: significantly reduced

COC(=O)CCN1CCc2cc(Cl)ccc21.Cc1ccc(S(=O)(=O)O)cc1 [AN1285, Methyl 3-(5-Chloroindolin-1-yl)propanoate p-Toluenesulfonate]
Greater concentration needed to cause the same effect (NO release) [1]: 100 fold
Greater concentration needed to cause the same effect (TNF-α release) [2]: 100 fold

COC(=O)CCN1CCc2cc(OC)ccc21.Cl [AN1297, Methyl 3-(5-Methoxyindolin-1-yl)propanoate Hydrochloride]
Reduction (%) ± STD compared to LPS alone, TNF-α ([3]; 6 h after LPS, 1 × 10^−9 M): 55.7 ± 11.5%
Reduction (%) ± STD compared to LPS alone, TNF-α ([3]; 12 h after LPS, 1 × 10^−10 M): 25.1 ± 10.9%
Reduction (%) ± STD compared to LPS alone, TNF-α ([3]; 12 h after LPS, 1 × 10^−11 M): 22.0 ± 7.2%
Reduction (%) ± STD compared to LPS alone, TNF-α ([3]; 24 h after LPS, 1 × 10^−9 M): 71.1 ± 8.9%
Reduction (%) ± STD compared to LPS alone, IL-6 [4]: 62.4 ± 16.5%
IL-6 protein in the brain (LPS-injected mice): reduction
IL-6 protein in the liver (LPS-injected mice): reduction
Serum amylase ([6]; Hydrochloride): decreased significantly
Serum amylase [6, 10]: Dose related reduction
TNF-α protein in the pancreas ([6]; Hydrochloride): dose-dependently reduced
TNF-α protein in the pancreas [6, 10]: Dose related reduction

COc1ccc2c(c1)CCN2CCCNC(C)C [AN1298, N-Isopropyl-3-(5-methoxyindolin-1-yl)propan-1-amine di-Hydrochloride]
Greater concentration needed to cause the same effect (NO release) [1]: does not affect the activity
Greater concentration needed to cause the same effect (TNF-α release) [2]: does not affect the activity
Reduction (%) ± STD compared to LPS alone, TNF-α ([3]; 6 h after LPS, 1 × 10^−9 M): 50.4 ± 13.5%
Reduction (%) ± STD compared to LPS alone, TNF-α ([3]; 12 h after LPS, 1 × 10^−10 M): 28.0 ± 7.9%
Reduction (%) ± STD compared to LPS alone, TNF-α ([3]; 12 h after LPS, 1 × 10^−11 M): 14.6 ± 4.2%
Reduction (%) ± STD compared to LPS alone, TNF-α ([3]; 24 h after LPS, 1 × 10^−9 M): 72.2 ± 9.7%
Reduction (%) ± STD compared to LPS alone, IL-6 [4]: 54.6 ± 18.8%
IL-6 protein in the brain (LPS-injected mice): reduction
IL-6 protein in the liver (LPS-injected mice): reduction
